Reference: PMC4581321, “Inhibitory Effects of Amorphigenin on the Mitochondrial Complex I of Culex pipiens pallens Coquillett (Diptera: Culicidae)” (International Journal of Molecular Sciences, 2015)
In brackets after ≈: the same amount, converted by molar mass. Like-named read-outs stand apart in the source and are kept apart here.

Experiments:
[1] = system: acetylcholinesterase enzyme; set-up: method as in doi:10.1016/j.pestbp.2011.12.002; conditions: cited from earlier work
[2] = system: mitochondrial complex I of Cx. pipiens pallens; assay: In vivo inhibition of mitochondrial complex I activity (fourth-instar larvae exposed 24 h, then mitochondria isolated); set-up: species or system Culex pipiens pallens; conditions: for decrease of mitochondrial complex I activity compared with control: 24 h
[3] = system: mitochondrial complex I of Cx. pipiens pallens; assay: In vitro inhibition of mitochondrial complex I activity (NADH oxidation at 340 nm, isolated larval mitochondria); assay type: biochemical, Culex pipiens pallens; conditions: NADH substrate; for IC50: isolated mitochondria, read-out: IC50 (μmol/L), in vitro
Description: The mitochondria of the fourth instar larvae of Cx. pipiens pallens were isolated according to the method of Akbar et al. with suitable modifications. The larvae were washed in a cold extraction medium (0.25 M sucrose solution containing 0.25% defatted BSA), then homogenized in a Potter–Elvehjem homogenizer under cold conditions. The homogenate was filtered through a moist muslin cloth and the filtrate centrifuged at 1000× g for 15 min at 4 °C. The residue was re-suspended in the extraction medium and centrifuged at 1000× g for 15 min at 4 °C. The supernatants from both centrifugations were combined and centrifuged at 12,000× g for 15 min at 4 °C. The mitochondrial pellet was re-suspended in the extraction medium, and stored at −80 °C until used. The protein concentration was determined by Smith’s method using BSA as the standard.
The mitochondrial complex I activity of Cx. pipiens pallens was determined as described by Birch-Machin et al. with adaptations for a 96-well format. It is well known that the mitochondrial complex I has two substrates, NADH and ubiquinone. […] The activity was measured by following the decrease in absorbance due to the oxidation of NADH at 340 nm with 425 nm as the reference wavelength. In brief, 20 μL of mitochondria and 160 μL of assay buffer containing 25 mM phosphate buffer (pH 7.2), 5 mM MgCl2, 2 mM NaN3 and 2.5 mg/mL BSA were added to each well of the 96-well plate, then the microplate was incubated for 20 min at 37 °C in a microplate reader (Spectramax 190 plate reader; Molecular Devices, Sunnyvale, CA, USA). Finally, the reaction was initiated by the addition of 10 μL of 0.13 mM NADH and measured for 5 min.
For the assay of in vitro inhibition of the mitochondrial complex I activities, 10 μL of different concentrations each of amorphigenin and rotenone were prepared in alcohol and diluted in 25 mM phosphate buffer (pH 7.2), then mixed with 10 μL of the mitochondria. The enzyme activity was immediately determined by the method as described above. For negative controls, 10 μL of 25 mM phosphate buffer (pH 7.2) instead of amorphigenin or rotenone were used in the assays. The inhibitory extent of the compounds was expressed as the inhibitor concentrations leading to 50% of the enzyme activity reduction (IC50).
Applying Microsoft Excel 2003 software (Microsoft, Redmond, WA, USA), the average enzyme activitie results, adjusted by Abbott, were subjected to probit analysis to calculate IC50 and correlation coefficient.

[4] = system: mitochondrial complex I of Cx. pipiens pallens; assay: Inhibition type and constants of mitochondrial complex I (enzyme-concentration plots, Lineweaver-Burk plots); assay type: biochemical, Culex pipiens pallens; conditions: for inhibition type: Lineweaver-Burk plots, NADH and endogenous ubiquinone as substrates; for reversibility of inhibition: enzyme activity vs enzyme concentration plots
Text: The inhibition effect on the mitochondrial complex I by amorphigenin and rotenone was also studied. […] The plots yielded straight lines passing through the origin.
The inhibitory kinetics of the mitochondrial complex I by amorphigenin and rotenone were studied by Lineweaver–Burk plots. […] Under the experimental conditions employed, the oxidative reaction of NADH by the mitochondrial complex I followed Michaelis–Menten kinetics. The double-reciprocal plots yielded a family of straight lines with different slopes and intercepts but they intersected one another in the second quadrant. […] Equilibrium constants for inhibitor binding with the free enzyme (KI) and with the enzyme-substrate complex (KIS) can be calculated according to the Foumulations (1) and (2) based on the slope and the vertical intercept against the concentration of inhibitors in Figure 3, respectively. (1) Slope=Ks/Vm(1+[I]/KI) (2) Intercept=1/Vm(1+[I]/KIS)
Different concentrations of NADH were incubated with the mitochondria and assay buffer to examine the enzyme kinetics of NADH with and without the addition of various concentrations of rotenoids. The inhibition type of the compounds on the enzyme was assayed by Lineweaver-Burk plots. The inhibition constant was determined by plots of the apparent 1/Vm or Km/Vm versus concentration of the inhibitor [40, 58].

[5] = system: larvae of Culex pipiens pallens; set-up: method as in PMID 25690287; conditions: cited from earlier work
[6] = system: bovine heart mitochondrial complex I; conditions: cited from earlier work
[7] = system: fourth instar larvae of A. aegypti; set-up: method as in doi:10.1016/S0031-9422(00)83185-4; conditions: 10 ppm; cited from earlier work
[8] = system: mammalian NADH-ubiquinone reductase; set-up: method as in PMID 7925463; conditions: relative to rotenone; cited from earlier work
[9] = system: 3th instar larvae of Bombyx mori; conditions: cited from earlier work; for LC50: 3th instar larvae
[10] = system: mitochondrial complex I prepared from a pig's heart; set-up: method as in doi:10.1016/S0926-6593(65)80060-1; conditions: cited from earlier work
[11] = system: mitochondrial complex I from submitochondrial particles of blow fly flight-muscle; set-up: method as in doi:10.1016/S0960-894X(00)80645-9; conditions: cited from earlier work
[12] = system: NADH-ubiquinone reductase of bovine heart submitochondrial particles; set-up: method as in PMID 7925463; conditions: against exogenous quinine DB and DPB; cited from earlier work
[13] = set-up: method as in earlier work; conditions: summer sunlight; cited from earlier work

Molecule: Cc1ccc(C(C)C)cc1O [Carvacrol, carvacrol]
- inhibition of acetylcholinesterase enzyme ([1]; house flies, ticks and cockroaches): slight inhibition
- inhibition of acetylcholinesterase enzyme ([1]; mosquito): did not inhibit

Molecule: C=C(CO)[C@H]1Cc2c(ccc3c2O[C@@H]2COc4cc(OC)c(OC)cc4[C@@H]2C3=O)O1 [Amorphigenin]
- decrease of mitochondrial complex I activity compared with control ([2]; 1.25 μmol/L, NADH substrate): 1.52 fold
- decrease of mitochondrial complex I activity compared with control ([2]; 2.5 μmol/L, NADH substrate): 1.78 fold
- decrease of mitochondrial complex I activity compared with control ([2]; 5 μmol/L, NADH substrate): 2.43 fold
- IC50 ([2]; fourth-instar larvae exposed 24 h, NADH substrate, read-out: IC50 (μmol/L), in vivo): 2.43 µmol/L
- decrease of mitochondrial complex I activity compared with control ([3]; 2 μmol/L): 27.38%
- decrease of mitochondrial complex I activity compared with control ([3]; 3 μmol/L): 50.00%
- decrease of mitochondrial complex I activity compared with control ([3]; 4 μmol/L): 70.24%
- IC50 [3]: 2.86 µmol/L
- inhibition type [4]: mixed-I type
- reversibility of inhibition [4]: reversible
- LC50, larvicidal activity [5]: 4.29 µg/mL (≈ 10.5 µM)
- LC90, larvicidal activity [5]: 11.27 µg/mL (≈ 27.5 µM)
- inhibitory potency compared with rotenone [6]: comparable with rotenone

Molecule: amorphigenin 8′-β-glucoside
- loss of the fourth instar larvae [7]: 85%
- pupae formation [7]: without the formation of pupae

Molecule: C=C(C)[C@@H]1CCC2=CC(=O)C[C@@H](C)[C@]2(C)C1 [Nootkatone, nootkatone]
- inhibition of acetylcholinesterase enzyme ([1]; any of the four arthropod models tested): did not inhibit

Molecule: C=C(C)[C@@H]1Cc2c(ccc3c2O[C@@H]2COc4cc(OC)c(OC)cc4[C@@H]2C3=O)O1 [5′β- epirotenone]
- times less inhibiting than rotenone [8]: about 1000 times
- LC50 [9]: 225.70 µg/mL (≈ 572 µM)
- times less toxic than rotenone ([9]; relative to rotenone): about 24 times

Molecule: C=C(C)C1Cc2c(ccc3c2OC2COc4cc(OC)c(OC)cc4C2C3O)O1 (stereo not shown) [rotenone reduced with NaBH4]
- in vitro IC50 [10]: 2.0 × 10^−5 μmol/mg protein

Molecule: arylazidoamorphigenin
- inhibitory potency compared with rotenone [6]: comparable with those of rotenone

Molecule: C=C(C)[C@H]1Cc2c(ccc3c2O[C@@H]2COc4cc(OC)c(OC)cc4[C@@H]2C3=O)O1 [Rotenone, reference compound]
- decrease of mitochondrial complex I activity compared with control ([2]; 1.25 μmol/L, NADH substrate): 1.45 fold
- decrease of mitochondrial complex I activity compared with control ([2]; 2.5 μmol/L, NADH substrate): 1.77 fold
- decrease of mitochondrial complex I activity compared with control ([2]; 5 μmol/L, NADH substrate): 2.41 fold
- IC50 ([2]; read-out: IC50 (μmol/L), in vivo, fourth-instar larvae exposed 24 h, NADH substrate): 2.52 µmol/L
- decrease of mitochondrial complex I activity compared with control ([3]; 3 μmol/L): significantly decreased
- decrease of mitochondrial complex I activity compared with control ([3]; 4 μmol/L): significantly decreased
- IC50 [3]: 3.14 µmol/L
- inhibition type [4]: mixed-I type
- reversibility of inhibition [4]: reversible
- in vitro IC50 [10]: 1.8 × 10^−5 μmol/mg protein
- inhibition type [11]: reversible competitive inhibitor
- inhibition type [12]: noncompetitive
- time until all toxicity is lost [13]: 2 to 3 days
- LC50 [9]: 9.33 µg/mL (≈ 23.7 µM)
